Assay results as given in patent US20260265684A1, “EIMERIA VACCINE” (priority 2024, published 2026).

Tests used:
[1] = tested on: Eimeria oocysts (E. acervulina, E. brunetti, E. maxima, E. mitis, E. necatrix and E. tenella); assay: Sporulation of Eimeria oocysts in different media, all species (Example 1); assay type: cell-based; conditions: for Average sporulation % across all species: 48 hours at 27° C., 150 rpm, three replicates, six species
E. acervulina oocysts = assay type: cell-based; conditions: for relative difference in oocyst counts compared to group 1 (percentage difference), R1: replicate R1, post sporulation; for relative difference in oocyst counts compared to group 1 (percentage difference), R3: replicate R3, post sporulation
E. brunetti oocysts = assay: Sporulation in different media: sporulation and post-sporulation oocyst count (Example 1); assay type: cell-based; conditions: for relative difference in oocyst counts compared to group 1 (percentage difference), R1: replicate R1, post sporulation; for relative difference in oocyst counts compared to group 1 (percentage difference), R3: replicate R3, post sporulation
E. maxima oocysts [2] = assay type: cell-based; conditions: for relative difference in oocyst counts compared to group 1 (percentage difference), R1: replicate R1, post sporulation; for relative difference in oocyst counts compared to group 1 (percentage difference), R3: replicate R3, post sporulation
E. mitis oocysts [3] = assay type: cell-based; conditions: for relative difference in oocyst counts compared to group 1 (percentage difference), R1: replicate R1, post sporulation; for relative difference in oocyst counts compared to group 1 (percentage difference), R3: replicate R3, post sporulation
E. necatrix oocysts = assay: Sporulation in different media: sporulation and post-sporulation oocyst count (Example 1); assay type: cell-based; conditions: for relative difference in oocyst counts compared to group 1 (percentage difference), R1: replicate R1, post sporulation; for relative difference in oocyst counts compared to group 1 (percentage difference), R3: replicate R3, post sporulation
E. tenella oocysts = assay type: cell-based; conditions: for relative difference in oocyst counts compared to group 1 (percentage difference), R1: replicate R1, post sporulation; for relative difference in oocyst counts compared to group 1 (percentage difference), R3: replicate R3, post sporulation
E. maxima oocysts [4] = assay: Sporulation in 2% Proxitane with detergents, initial experiments (Example 4); assay type: cell-based
Procedure: (§1) The 2% Proxitane (~1000 ppm peracetic acid) sporulation media was prepared as described in Example 1. Detergents were added to the 2% Proxitane (~1000 ppm peracetic acid) solution at two concentrations: 0.05% solution and 0.5% solution. A 30% solution of Sarkosyl in 2% Proxitane (~1000 ppm peracetic acid) was prepared first before diluting to the desired concentration. Docusate dissolved in water with heat (up 90° C.) before adding the Proxitane.
(§2) Oocysts were sporulated in 15 or 50 mL tubes with at least 80% headspace (i.e. 10 mL liquid in 50 mL tube max). The amount of solids (unsporulated oocysts+debris) in this experiments was set to 2%, i.e. a solids ratio of 1:49.
(§3) All samples were incubated at 27° C. and about 150 rpm in the shaking incubator for 48 hours. Following sporulation, samples were either stored at 4-8° C. or evaluated immediately.
(§4) Sporulation level and oocyst health was evaluated as described in Example 1.

[5] = tested on: microorganisms other than the Eimeria; assay type: cell-based; conditions: replicate sterility averaged across the 6 species; FIG. 13
[6] = tested on: microorganisms other than the Eimeria; assay type: cell-based; conditions: across 1%, 3% and 5% solids and all species
Eimeria oocysts = assay: Sporulation at variable solids content (Example 2); assay type: cell-based; conditions: 1%, 3% and 5% solids
[7] = tested on: Candida albicans ATCC 10231; conditions: 27° C., FIG. 18A
Procedure: (§5) Each organism was exposed to each chemical mimicking the duration and conditions they would be used with for sporulation or sterilisation.
(§6) Organism suspensions were prepared by sub-culturing onto an appropriate growth plate and incubating under standard conditions. The growth was harvested and suspended in appropriate media. The starting titre for most organisms once inoculated into the test media was approximately ≤10^6 CFU/mL.
(§7) 0.1 mL of the harvested bacterial or fungal suspension was added to 9.9 mL of the solution being tested in a sterile glass vial (McCartney container). The inoculated solutions were incubated at 27° C. Zero hours samples were done with sterile water and not the solution being tested to determine a baseline for log reduction calculations. At the appropriate time point, 1 mL of sample was combined with 9 mL of sodium thiosulfate neutralizer (the 10:1 dilution). Serial dilutions in Peptone water (PEP) from 10^−2 to 10^−6 were plated out onto either TSA (bacterial) or SDA (fungal) plates. The 10^−1 dilution in neutraliser was also plated. Plates were incubated according to the organisms' requirements and the number of colonies counted at the end of the incubation period.

[8] = tested on: Pseudomonas aeruginosa ATCC 9027; conditions: 27° C.; FIG. 18A
Procedure: as §5, §6, §7

[9] = tested on: Staphylococcus aureus ATCC 6538; conditions: after the 48 hours, 27° C.; FIG. 18A
Procedure: as §5, §6, §7

E. mitis oocysts [10] = assay: Sporulation in 2% Proxitane with anionic detergents, follow up trial (Example 4); assay type: cell-based; conditions: detergent 0.05% in 2% Proxitane; FIG. 19
Procedure: as §1, §2, §3, §4

Row | Compound | Average sporulation % across all species [1] [%] | relative difference in oocyst counts compared to group 1 (percentage difference), R1 (E. acervulina oocysts) [%] | relative difference in oocyst counts compared to group 1 (percentage difference), R3 (E. acervulina oocysts) [%] | relative difference in oocyst counts compared to group 1 (percentage difference), R1 (E. brunetti oocysts) [%] | relative difference in oocyst counts compared to group 1 (percentage difference), R3 (E. brunetti oocysts) [%] | relative difference in oocyst counts compared to group 1 (percentage difference), R1 (E. maxima oocysts [2]) [%] | relative difference in oocyst counts compared to group 1 (percentage difference), R3 (E. maxima oocysts [2]) [%] | relative difference in oocyst counts compared to group 1 (percentage difference), R1 (E. mitis oocysts [3]) [%] | relative difference in oocyst counts compared to group 1 (percentage difference), R3 (E. mitis oocysts [3]) [%] | relative difference in oocyst counts compared to group 1 (percentage difference), R1 (E. necatrix oocysts) [%] | relative difference in oocyst counts compared to group 1 (percentage difference), R3 (E. necatrix oocysts) [%] | relative difference in oocyst counts compared to group 1 (percentage difference), R1 (E. tenella oocysts) [%] | relative difference in oocyst counts compared to group 1 (percentage difference), R3 (E. tenella oocysts) [%] | sterility [5] | further results
1 | O=S(=O)([N-]Cl)c1ccccc1.[Na+] [1% chloramine B, chloramine B] | 81 | 9.43 | −137 | −7 | 91 | −4 | −4 | 12.16 | 8 | 24 | −27.13 | −1.16 | 40.83 |  | 
2 | CCCCCCCCCCCCOS(=O)(=O)[O-].[Na+] [SDS] |  |  |  |  |  |  |  |  |  |  |  |  |  |  | percent sporulation (E. maxima oocysts [4]; detergent 0.5% in 2% Proxitane, 2% solids, 48 hours): 40%; sticking of debris and oocysts (E. maxima oocysts [4]; detergent in 2% Proxitane, data not shown): reduce sticking; oocyst damage (E. maxima oocysts [4]; upon prolonged storage): cause damage to the oocyst wall
3 | [K+].[K+].[O]=[Cr](=[O])([O-])[O][Cr](=[O])(=[O])[O-] [2% potassium dichromate, potassium dichromate, reference compound] |  |  |  |  |  |  |  |  |  |  |  |  |  | failed to achieve sterility | sterility outcome (in words) [6]: failed to sterilise the material
4 | OO [0.5% hydrogen peroxide, hydrogen peroxide] | 81 | 11.16 | −298 | −13 | 92 | 5 | −13 | 29.90 | 17 | 25 | −15.15 | 17.92 | 26.75 | 80% | sporulating oocysts compared with control group 1 ([1]; averaged sporulation from 3 replicates, across all the species tested (FIGS. 7-12)): comparable to or better than control group 1; sporulation compared with dichromate (in words) (Eimeria oocysts): good sporulation compared to dichromate except with 5% solids; samples failing sterility (fail rate) [6]: 21%; reduction of titre before going back up at the last time point [7]: 4.32 logs; viability after treatment ([7]; after the 48 hours): still viable; time to inactivation [8]: within the first hour; viability after treatment [9]: still viable
5 | O=CCCCC=O [0.2% glutaraldehyde, glutaraldehyde] | 78 | 1.31 | −1 | 3 | 91 | 3 | −3 | 8.68 | 1 | 7 | −61.49 | 3.12 | 30.08 |  | 
6 | CCCCCCCCCCCC(=O)N(C)CC(=O)[O-].[Na+] [sarkosyl, Sarkosyl] |  |  |  |  |  |  |  |  |  |  |  |  |  |  | sticking of debris to oocyst walls (E. mitis oocysts [10]): sticking of debris to oocyst walls was found
